Laboratory results: USRE47388E1, “Agents for alleviating side effects” (TAIHO PHARMACEUTICAL CO., LTD., priority 1999, dated 2019)
Structures can show the parent of a compound that is named as a salt. Marks after values point to notes of the source that are not given here.

Tests used:
Yoshida sarcoma = assay: Test 3: action on anti-tumor action of cancer drug (tumor weight); format: in vivo, Donryu male rats; conditions: for Tumor weight: day 8; for Anti-tumor action / inhibition of tumor weight (in words): CDDP alone 6 mg/kg, Compound 1 for seven consecutive days with CDDP; for Inhibition ratio (%): tumor shrinkage vs control
[1] = Test 3: suppression of body weight increase in tumor-bearing rats; format: in vivo, Donryu male rats; conditions: for Suppression of body weight (in words): CDDP alone 6 mg/kg, Compound 1 for seven consecutive days with CDDP; for Body weight change: day 0 to day 8; for Weight change ratio (%): ratio of suppression of body weight increase vs control
Experimental: CDDP was suspended in saline so as to obtain a 0.6 mg/ml suspension, and the suspension was stirred by use of a stirrer for about 20 minutes at room temperature. The suspension was subjected to sonication for 5 minutes while being cooled with ice to thereby obtain a test solution containing CDDP for administration at 6.0 mg/kg/day.
Compound 1 was suspended in 0.5% HPMC so as to obtain a 3 mg/ml suspension, 10 mg/ml suspension, and 30 mg/ml suspension, respectively, and each suspension was stirred by use of a stirrer for about 20 minutes at room temperature. Each suspension was subjected to sonication for 5 minutes while being cooled with ice to thereby obtain test solutions containing Compound 1 for administration at 30 mg/kg/day, 100 mg/kg/day, and 300 mg/kg/day, respectively.
Five-week-old Donryu male rats were divided into a control group and treatment groups so that the average body weights of the groups and the standard deviations (S.D.) of the groups were made to be as close to one another as possible. Yoshida sarcoma (2×10^4 cells/0.1 ml/rat) was subcutaneously transplanted on the back of each rat, and administration was started the day following the day of transplant. To each rat of the CDDP treatment alone groups, the CDDP solution of 6.0 mg/kg was intravenously administered on the first administration day, and a 0.5% HPMC solution was orally administered for seven consecutive days at a daily dose of 1.0 ml per 100 g of body weight. […] To each rat of the control group, saline was intravenously administered on the first administration day in a dose of 1.0 ml per 100 g of body weight. Simultaneously, a 0.5% HPMC solution was orally administered once a day for five consecutive days at a daily dose of 1.0 ml per 100 g of body weight. In order to observe the action of Compound 1 per se, Compound-1-administration alone groups were provided for administration at 30 mg/kg/day, 100 mg/kg/day, and 300 mg/kg/day, respectively.
The rats were weighed on the day of transplantation (day 0) and the day following the day of final administration (day 8), and the suppression ratio of body weight increase was calculated by use of the following equation. Ratio of suppression of body weight increase (%)=(1−body weight changes of one treatment group/body weight changes of the control group)×100

[2] = Test 2: delaying effect on diarrhea occurrence caused by CPT-11; format: in vivo, Donryu male rats; conditions: CPT-11 60 mg/kg/day i.v. every day for five days; Compound 1 30 mg/kg/day oral concomitantly
Experimental: Irinotecan hydrochloride (hereinafter referred to as “CPT-11”; KAMPTO Injection 100 mg/5 ml; product of Yakult Co., Ltd.) was diluted with saline so as to obtain a 6 mg/ml solution for administration at 60 mg/kg/day.
Compound 1 was suspended in a 0.5% hydroxypropylmethyl cellulose solution (hereinafter referred to as “0.5% HPMC”) so as to obtain a 3 mg/ml suspension, and the suspension was stirred by use of a stirrer for about 20 minutes at room temperature. The suspension was subjected to ultrasound treatment for 5 minutes while being cooled with ice, to thereby obtain a test solution containing Compound 1 for administration at 30 mg/kg/day.
Five-week-old Donryu male rats were divided into a control group and treatment groups so that the average body weights of the groups and the standard deviations (S.D.) of the groups were made to be as close to one another as possible. To each rat of the anti-tumor-agent treatment alone groups, the CPT-11 solution was intravenously administered once a day for five consecutive days at a daily dose of 1.0 ml per 100 g of body weight. […] The number of rats which had diarrhea at least once during the test period were counted as “diarrhea-rats”. The accumulated occurrence of diarrhea was calculated by use of the following equation: accumulated occurrence of diarrhea (%)=(the number of rats which had diarrhea/the total number of rats)×100

[3] = Test 4: measurement of body weight change after FTD; format: in vivo, ICR mice; conditions: for Weight change ratio (%): body weight changes/body weight before administration x100, eight days, alone 100 mg/kg/day; for Weight change ratio (%) / Body weight change: oral, FTD 200 mg/kg/day, Compound 1 94 mg/kg/day in the mixture; for Body weight change: day 0 to day 9, eight consecutive days, Compound 1 alone 100 mg/kg/day
Experimental: 5-Trifluoromethyl-2′-deoxyuridine (hereinafter abbreviated as FTD) was suspended in a 0.5% HPMC solution so as to obtain a 20 mg/ml suspension, and the suspension was stirred by use of a stirrer for about 20 minutes at room temperature.
FTD was suspended in a 0.5% HPMC solution so as to obtain a 20 mg/ml suspension. To the suspension, Compound 1 was added so as to attain a concentration of 9.4 mg/ml. The resultant mixture was stirred by use of a stirrer for about 20 minutes at room temperature, and then subjected to sonication under ice cooling, to thereby obtain a test solution containing FTD and Compound 1 (mol ratio 1:0.5).
Compound 1 was suspended in a 0.5% HPMC solution so as to obtain a 10 mg/ml suspension, and the suspension was stirred by use of a stirrer for about 20 minutes at room temperature. The suspension was subjected to sonication for 5 minutes under ice cooling, to thereby obtain a test solution containing Compound 1 for administration of 100 mg/kg/day.
Eight-week-old male ICR rats were divided into a control group and treatment groups so that the average body weights of the groups and the standard deviations (S.D.) of the groups were made to be as close to one another as possible. To each rat of the FTD treatment alone groups, the FTD solution of 200 mg/kg/day (1.0 ml) was orally administered once a day for eight consecutive days (per 100 g body weight of each rat). To each rat of combination-administration treatment groups, a mixture solution of FTD and Compound 1 was perorally administered once a day for eight consecutive days at a daily dose of 1.0 ml per 100 g of body weight. To each rat of the control group, a 0.5% HPMC solution was perorally administered for eight consecutive days. In order to observe the action of Compound 1 per se, Compound 1-administration alone groups were provided for administration of 100 mg/kg/day.
The rats were weighed at the previous day of the first administration (day 0) and the following day of the day of final administration (day 9), and the ratio of body weight ratio was calculated by use of the following equation. Ratio of body weight change (%)=body weight changes/body weight before administration×100

IL-1β = assay: Test 4: IL-1β level in the large intestine (ELISA); format: in vivo, ICR mice; conditions: for Level of IL-1β in the large intestine (in words): FTD 200 mg/kg/day eight consecutive days vs control, Compound 1 94 mg/kg incorporated; for Large intestine IL-1β: day 9, oral, eight days, FTD 200 mg/kg/day, Compound 1 94 mg/kg/day in the mixture, alone 100 mg/kg/day
Experimental: (§1) To each rat of the control group, a 0.5% HPMC solution was perorally administered for eight consecutive days. In order to observe the action of Compound 1 per se, Compound 1-administration alone groups were provided for administration of 100 mg/kg/day. […] Immediately after the collected region were washed with saline, the portions were frozen to preserve at −80° C. Each sample preparation was diluted with a 0.05M phosphate buffer (pH 7.4) so as to attain a tissue concentration of approximately 10% (W/V), and the resultant mixture was homogenized, subjected to sonication, and subjected twice to freeze-thawing. The thus-treated matter was centrifuged at 12,000 g for 15 minutes, and the supernatant was collected to serve as a sample for cytokine measurement. Cytokines, i.e., IL-1β and mouse IL-6 were measured by use of an ELISA kit for mouse (product of Endogen, Inc.), and the results are shown in Table 4. Test results were statistically analyzed in accordance with the Dunnett method ((*; p<0.05) and (**; p<0.01)).

IL-6 = assay: Test 4: IL-6 level in the small intestine and the large intestine (ELISA); format: in vivo, ICR mice; conditions: for Level of inflammatory cytokine IL-6 in the small intestine and the large intestine (in words): FTD 200 mg/kg/day eight consecutive days vs control, Compound 1 94 mg/kg incorporated; for Large intestine IL-6 / Small intestine IL-6: day 9, oral, eight days, FTD 200 mg/kg/day, Compound 1 94 mg/kg/day in the mixture, alone 100 mg/kg/day
Experimental: as §1

[4] = Test 1: alleviating effect on suppression of body weight increase caused by 5-FU or CDDP
Experimental: 5-Fluorouracil (hereinafter referred to as “5-FU”) was suspended in saline so as to obtain a 2.0 mg/ml suspension, and the suspension was stirred by use of a stirrer for about 20 minutes at room temperature. The suspension was treated with sonication for 5 minutes while being cooled with ice, to thereby obtain a test solution containing 5-FU for administration at 20 mg/kg/day.
Cisplatin (hereinafter referred to as “CDDP”) was suspended in saline so as to obtain a 0.1 mg/ml suspension, and the suspension was stirred by use of a stirrer for about 20 minutes at room temperature. The suspension was treated with sonication for 5 minutes while being cooled with ice, to thereby obtain a test solution containing CDDP for administration at 1.0 mg/kg/day.
Compound 1 was suspended in water so as to obtain a 10 mg/ml suspension, and the suspension was stirred by use of a stirrer for about 20 minutes at room temperature. The suspension was treated with sonication for 5 minutes while being cooled with ice, to thereby obtain a test solution containing Compound 1 for administration at 100 mg/kg/day.
Five-week-old Donryu male rats were divided into a control group and treatment groups so that the average body weights of the groups and the standard deviations (S.D.) of the groups were made to be as close to one another as possible. To each rat of the anti-tumor-agent treatment alone groups, the 5-FU solution or the CDDP solution was intravenously administered once a day for four consecutive days at a daily dose of 1.0 ml per 100 g of body weight. Simultaneously, water was orally administered once a day for four consecutive days at a daily dose of 1.0 ml per 100 g of body weight. To each rat of the combination-administration treatment groups, the 5-FU solution or the CDDP solution was intravenously administered once a day for four consecutive days at a daily dose of 1.0 ml per 100 g of body weight. Simultaneously, to each rat of the combination-administration groups, the solution of Compound 1 was orally administered once a day for four consecutive days at a daily dose of 1.0 ml per 100 g of body weight. To each rat of the control group, saline was intravenously administered once a day for four consecutive days at a daily dose of 1.0 ml per 100 g of body weight. Simultaneously, water was orally administered once a day for four consecutive days at a daily dose of 1.0 ml per 100 g of body weight.
The rats were weighed prior to initiation of administration (day 1) and on the day following the day of final administration (day 5), and the ratio of suppression of body weight increase was calculated by use of the following equation.
Test results were statistically analyzed using the Student's “T” test. […]

[5] = CDDP 6.0 mg/kg i.v. on first day + vehicle oral 7 days
[6] = Compound 1 30 mg/kg/day oral 7 days, with CDDP 6.0 mg/kg i.v. day 1 or saline
[7] = Compound 1 100 mg/kg/day oral 7 days, with CDDP 6.0 mg/kg i.v. day 1 or saline
[8] = Compound 1 300 mg/kg/day oral 7 days, with CDDP 6.0 mg/kg i.v. day 1 or saline

Question: Which “Tumor weight” value (Yoshida sarcoma; CDDP 6.0 mg/kg i.v. on first day + 0.5% HPMC vehicle oral 7 days) does the source give for `[NH2][Pt]([NH2])([Cl])[Cl]` [CDDP, Cisplatin, reference compound] here?
Answer: Its value is 0.162 ± 0.155 g.

Question: What about the “Anti-tumor action / inhibition of tumor weight (in words)” value (Yoshida sarcoma) of the same compound?
Answer: The value was “Significant inhibition of tumor weight”.

Question: And the “Inhibition ratio (%)” value (Yoshida sarcoma; [5])?
Answer: The value was 75.7%.

Question: And the “Suppression of body weight (in words)” value [1]?
Answer: Its value is “Significant inhibition”.

Question: And the “Body weight change” value [1, 5]?
Answer: The value was -19.4 ± 8.6 g.

Question: What about the “Weight change ratio (%)” value [1, 5] of the same compound?
Answer: The value was 174.9%.

Question: Which “Accumulated occurrence of diarrhea (FIG. 1, in words)” value [2] does the source give for `CCc1c2c(nc3ccc(OC(=O)N4CCC(N5CCCCC5)CC4)cc13)-c1cc3c(c(=O)n1C2)COC(=O)[C@]3(O)CC` [CPT-11, Irinotecan hydrochloride, reference compound] here?
Answer: The value was “diarrhea occurred after the third administration day”.

Question: Which “Anti-tumor action / inhibition of tumor weight (in words)” value (Yoshida sarcoma) does the source give for `Cl.N=C1CCCN1Cc1[nH]c(=O)[nH]c(=O)c1Cl` [Compound 1, 5-Chloro-6-(2-iminopyrrolidin-1-yl)methyl-2,4-(1H,3H)-pyrimidinedione Hydrochloride] here?
Answer: Its value is “without affecting the anti-tumor action”.

Question: And the “Tumor weight” value (Yoshida sarcoma; [6])?
Answer: Its value is 0.787 ± 0.307 g.

Question: What about the “Tumor weight” value (Yoshida sarcoma; [7]) of the same compound?
Answer: The value was 0.816 ± 0.329 g.

Question: And the “Tumor weight” value (Yoshida sarcoma; [8])?
Answer: The value was 0.829 ± 0.281 g.

Question: And the “Inhibition ratio (%)” value (Yoshida sarcoma; [6])?
Answer: The value was −18.1%.

Question: And the “Inhibition ratio (%)” value (Yoshida sarcoma; [7])?
Answer: Its value is −22.4%.

Question: What about the “Inhibition ratio (%)” value (Yoshida sarcoma; [8]) of the same compound?
Answer: The value was −24.5%.

Question: And the “Decrease in the body weight caused by FTD (in words)” value ([3]; Compound 1 94 mg/kg/day incorporated with FTD 200 mg/kg/day)?
Answer: The value was “protected”.

Question: What about the “Weight change ratio (%)” value [3] of the same compound?
Answer: Its value is 6.8%.

Question: And the “Body weight change” value [3]?
Answer: The value was 2.4 ± 1.1 g.

Question: And the “Suppression of body weight (in words)” value [1]?
Answer: Its value is “suppression of body weight was alleviated”.

Question: What about the “Body weight change” value [1, 6] of the same compound?
Answer: The value was 29.3 ± 10.2 g.

Question: And the “Body weight change” value [1, 7]?
Answer: Its value is 23.9 ± 6.6 g.

Question: And the “Body weight change” value [1, 8]?
Answer: The value was 28.1 ± 6.0 g.

Question: And the “Weight change ratio (%)” value [1, 6]?
Answer: Its value is −13.1%.

Question: And the “Weight change ratio (%)” value [1, 7]?
Answer: The value was 7.7%.

Question: What about the “Weight change ratio (%)” value [1, 8] of the same compound?
Answer: Its value is −8.5%.

Question: And the “Level of IL-1β in the large intestine (in words)” value (IL-1β)?
Answer: The value was “inhibited”.

Question: And the “Large intestine IL-1β” value (IL-1β)?
Answer: Its value is 23.7 ± 4.6 pg/mg protein.

Question: What about the “Level of inflammatory cytokine IL-6 in the small intestine and the large intestine (in words)” value (IL-6) of the same compound?
Answer: Its value is “inhibited”.

Question: What about the “Large intestine IL-6” value (IL-6) of the same compound?
Answer: The value was 10.7 ± 4.7 pg/mg protein.

Question: What about the “Small intestine IL-6” value (IL-6) of the same compound?
Answer: Its value is 19.8 ± 9.9 pg/mg protein.

Question: What about the “Occurrence of diarrhea, combination-administration groups vs anti-tumor-agent-administration alone groups” value ([4]; Compound 1 100 mg/kg/day with 5-FU 20 mg/kg/day or CDDP 1.0 mg/kg/day) of the same compound?
Answer: Its value is “lower”.

Question: What about the “Accumulated occurrence of diarrhea (FIG. 1, in words)” value [2] of the same compound?
Answer: Its value is “delayed”.

Question: Which results are given for `O=c1[nH]cc(F)c(=O)[nH]1` [Compound 5-FU, 5-Fluorouracil]?
Answer: Suppression of body weight increase (in words) ([4]; 5-FU 20 mg/kg/day or CDDP 1.0 mg/kg/day for 4 consecutive days, Compound 1 100 mg/kg/day in combination with the anti-tumor agent): Suppression of body weight increase was confirmed; Body weight change ([4]; day 1 to day 5, 5-FU 20 mg/kg/day or CDDP 1.0 mg/kg/day i.v., Compound 1 100 mg/kg/day oral, four consecutive days, mean ± S.D.): 15.6 ± 3.6 g; Suppression ratio (%) (ratio of suppression of body weight increase) ([4]; vs control group, 5-FU 20 mg/kg/day or CDDP 1.0 mg/kg/day i.v., Compound 1 100 mg/kg/day oral, four consecutive days): 46.7%

Question: For `O=c1[nH]c(=O)n([C@H]2C[C@H](O)[C@@H](CO)O2)cc1C(F)(F)F` [FTD, 5-Trifluoromethyl-2′-deoxyuridine, reference compound], which “Weight change ratio (%)” value [3] is on record?
Answer: Its value is −17.6%.

Question: What about the “Body weight change” value [3] of the same compound?
Answer: The value was -1.6 ± 4.7 g.

Question: And the “Decrease ratio of the body weight at the following day of the final administration to that before administration” value ([3]; solo FTD 200 mg/kg daily for eight consecutive days)?
Answer: The value was “approximately 18%”.

Question: And the “Level of IL-1β in the large intestine (in words)” value (IL-1β)?
Answer: Its value is “elevated”.

Question: And the “Large intestine IL-1β” value (IL-1β)?
Answer: Its value is 77.3 ± 42.1** pg/mg protein.

Question: What about the “Level of inflammatory cytokine IL-6 in the small intestine and the large intestine (in words)” value (IL-6) of the same compound?
Answer: Its value is “high level”.

Question: What about the “Large intestine IL-6” value (IL-6) of the same compound?
Answer: Its value is 118.0 ± 47.6** pg/mg protein.

Question: What about the “Small intestine IL-6” value (IL-6) of the same compound?
Answer: The value was 95.5 ± 19.2** pg/mg protein.
